Data from US9149038B2, “4-amino-6-(heterocyclic)picolinates and 6-amino-2-(heterocyclic)pyrimidine-4-carboxylates and their use as herbicides” (Dow AgroSciences LLC, priority 2013, dated 2015).
Where two headings read alike, the source gives them in different places.

System: Direct Seeded Rice and weed species
Test: Postemergence herbicidal activity in direct seeded rice, visual rating after 20-22 days and probit GR20/GR50/GR80/GR90 (Table 14)
Format: in vivo
Conditions: for pest or weed control at 17.5 g/ha / pest or weed control at 35 g/ha / pest or weed control at 70 g/ha: post-emergence, 504 h, postemergence; for pest or weed control at 17.5 g/ha: 17.5 g ai/ha; for pest or weed control at 35 g/ha: 35 g ai/ha; for pest or weed control at 70 g/ha: 70 g ai/ha
In short: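 Rice and weeds grown in loam–sand soil (pH about 8.1) in greenhouse to 2nd–3rd true leaf, then sprayed postemergence at 187 L/ha in acetone/DMSO with 1.25% (v/v) Agri-dex crop oil. Injury rated visually 0–100 after 20-22 days versus untreated plants; GR20, GR50, GR80, GR90 obtained by probit analysis across dose rates.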

[1] = BRAPP (broadleaf signalgrass, Brachiaria platyphylla), read-out: Visual Growth Reduction (%) 21 Days After Application BRAPP
[2] = CYPDI (small-flower flatsedge, Cyperus difformis), read-out: Visual Growth Reduction (%) 21 Days After Application CYPDI
[3] = CYPES (yellow nutsedge, Cyperus esculentus), read-out: Visual Growth Reduction (%) 21 Days After Application CYPES
[4] = CYPIR (rice flatsedge, Cyperus iria), read-out: Visual Growth Reduction (%) 21 Days After Application CYPIR
[5] = DIGSA (large crabgrass, Digitaria sanguinalis), read-out: Visual Growth Reduction (%) 21 Days After Application DIGSA
[6] = ECHCG (barnyardgrass, Echinochloa crus-galli), read-out: Visual Growth Reduction (%) 21 Days After Application ECHCG
[7] = ECHCO (junglerice, Echinochloa colonum), read-out: Visual Growth Reduction (%) 21 Days After Application ECHCO
[8] = LEFCH (Chinese sprangletop, Leptochloa chinensis), read-out: Visual Growth Reduction (%) 21 Days After Application LEFCH
[9] = ORYSJ (Oryza sativa, rice crop), read-out: Visual Growth Reduction (%) 21 Days After Application ORYSJ
[10] = ORYSK (Oryza sativa, rice crop), read-out: Visual Growth Reduction (%) 21 Days After Application ORYSK
[11] = SCPJU (Japanese bulrush, Schoenoplectus juncoides Roxb.), read-out: Visual Growth Reduction (%) 21 Days After Application SCPJU
[12] = SEBEX (hemp sesbania, Sesbania exaltata), read-out: Visual Growth Reduction (%) 21 Days After Application SEBEX

With `COc1c(C(=O)O)nc(-c2ccc3c(c2)OC(F)(F)O3)c(F)c1N` [Compound 25] the “GR50 BRAPP” value (BRAPP (Brachiaria platyphylla), probit analysis, dose for 50 percent growth reduction) was 4 g ai/ha, the “GR80 BRAPP” value (BRAPP (Brachiaria platyphylla), probit analysis, dose for 80 percent growth reduction) was 9 g ai/ha and the “GR90 BRAPP” value (BRAPP (Brachiaria platyphylla), probit analysis, dose for 90 percent growth reduction) was 13 g ai/ha. The “GR50 CYPDI” value (CYPDI (Cyperus difformis), probit analysis, dose for 50 percent growth reduction) was 0.04 g ai/ha, the “GR80 CYPDI” value (CYPDI (Cyperus difformis), probit analysis, dose for 80 percent growth reduction) was 1 g ai/ha and the “GR90 CYPDI” value (CYPDI (Cyperus difformis), probit analysis, dose for 90 percent growth reduction) was 2 g ai/ha. For the same molecule, the “GR50 CYPES” value (CYPES (Cyperus esculentus), probit analysis, dose for 50 percent growth reduction) was 0.04 g ai/ha, the “GR80 CYPES” value (CYPES (Cyperus esculentus), probit analysis, dose for 80 percent growth reduction) was 1 g ai/ha and the “GR90 CYPES” value (CYPES (Cyperus esculentus), probit analysis, dose for 90 percent growth reduction) was 1 g ai/ha. The “GR50 CYPIR” value (CYPIR (Cyperus iria), probit analysis, dose for 50 percent growth reduction) was 2 g ai/ha, the “GR80 CYPIR” value (CYPIR (Cyperus iria), probit analysis, dose for 80 percent growth reduction) was 5 g ai/ha and the “GR90 CYPIR” value (CYPIR (Cyperus iria), probit analysis, dose for 90 percent growth reduction) was 9 g ai/ha. For the same molecule, the “GR50 DIGSA” value (DIGSA (Digitaria sanguinalis), probit analysis, dose for 50 percent growth reduction) was 27 g ai/ha, the “GR80 DIGSA” value (DIGSA (Digitaria sanguinalis), probit analysis, dose for 80 percent growth reduction) was 2530 g ai/ha and the “GR90 DIGSA” value (DIGSA (Digitaria sanguinalis), probit analysis, dose for 90 percent growth reduction) was 27000 g ai/ha. The “GR50 ECHCG” value (ECHCG (Echinochloa crus-galli), probit analysis, dose for 50 percent growth reduction) was 0.025 g ai/ha, the “GR80 ECHCG” value (ECHCG (Echinochloa crus-galli), probit analysis, dose for 80 percent growth reduction) was 1 g ai/ha and the “GR90 ECHCG” value (ECHCG (Echinochloa crus-galli), probit analysis, dose for 90 percent growth reduction) was 3 g ai/ha. The “GR50 ECHCO” value (ECHCO (Echinochloa colonum), probit analysis, dose for 50 percent growth reduction) was 2 g ai/ha, the “GR80 ECHCO” value (ECHCO (Echinochloa colonum), probit analysis, dose for 80 percent growth reduction) was 4 g ai/ha and the “GR90 ECHCO” value (ECHCO (Echinochloa colonum), probit analysis, dose for 90 percent growth reduction) was 6 g ai/ha. The “GR50 LEFCH” value (LEFCH (Leptochloa chinensis), probit analysis, dose for 50 percent growth reduction) was 175 g ai/ha, the “GR80 LEFCH” value (LEFCH (Leptochloa chinensis), probit analysis, dose for 80 percent growth reduction) was 463 g ai/ha and the “GR90 LEFCH” value (LEFCH (Leptochloa chinensis), probit analysis, dose for 90 percent growth reduction) was 770 g ai/ha. The “GR20 ORYSJ” value (ORYSJ (Oryza sativa, rice crop), probit analysis, dose for 20 percent growth reduction) was 1 g ai/ha, the “GR20 ORYSK” value (ORYSK (Oryza sativa, rice crop), probit analysis, dose for 20 percent growth reduction) was 3 g ai/ha and the “GR50 SCPJU” value (SCPJU (Schoenoplectus juncoides Roxb.), probit analysis, dose for 50 percent growth reduction) was 0.0001 g ai/ha. The “GR80 SCPJU” value (SCPJU (Schoenoplectus juncoides Roxb.), probit analysis, dose for 80 percent growth reduction) was 0.0001 g ai/ha, the “GR90 SCPJU” value (SCPJU (Schoenoplectus juncoides Roxb.), probit analysis, dose for 90 percent growth reduction) was 0.0001 g ai/ha and the “GR50 SEBEX” value (SEBEX (Sesbania exaltata), probit analysis, dose for 50 percent growth reduction) was 19 g ai/ha. The “GR80 SEBEX” value (SEBEX (Sesbania exaltata), probit analysis, dose for 80 percent growth reduction) was 26 g ai/ha, the “GR90 SEBEX” value (SEBEX (Sesbania exaltata), probit analysis, dose for 90 percent growth reduction) was 30 g ai/ha and the pest or weed control at 17.5 g/ha [1] was 95 to 100%. For the same molecule, the pest or weed control at 35 g/ha [1] was 95 to 100%, the pest or weed control at 70 g/ha [1] was 95 to 100% and the pest or weed control at 17.5 g/ha [2] was 95 to 100%. For the same molecule, the pest or weed control at 35 g/ha [2] was 95 to 100%, the pest or weed control at 70 g/ha [2] was 95 to 100% and the pest or weed control at 17.5 g/ha [3] was 95 to 100%. For the same molecule, the pest or weed control at 35 g/ha [3] was 95 to 100%, the pest or weed control at 70 g/ha [3] was 95 to 100% and the pest or weed control at 17.5 g/ha [4] was 85 to 94%. It also gave a pest or weed control at 35 g/ha [4] of 95 to 100%, a pest or weed control at 70 g/ha [4] of 95 to 100% and a pest or weed control at 17.5 g/ha [5] of 30 to 44%. The pest or weed control at 35 g/ha [5] was 60 to 74%, the pest or weed control at 70 g/ha [5] was 60 to 74% and the pest or weed control at 17.5 g/ha [6] was 95 to 100%. The pest or weed control at 35 g/ha [6] was 95 to 100%, the pest or weed control at 70 g/ha [6] was 95 to 100% and the pest or weed control at 17.5 g/ha [7] was 95 to 100%. For the same molecule, the pest or weed control at 35 g/ha [7] was 95 to 100%, the pest or weed control at 70 g/ha [7] was 95 to 100% and the pest or weed control at 17.5 g/ha [8] was 0 to 29%. The pest or weed control at 35 g/ha [8] was 0 to 29%, the pest or weed control at 70 g/ha [8] was 0 to 29% and the pest or weed control at 17.5 g/ha [9] was 85 to 94%. For the same molecule, the pest or weed control at 35 g/ha [9] was 95 to 100%, the pest or weed control at 70 g/ha [9] was 95 to 100% and the pest or weed control at 17.5 g/ha [10] was 85 to 94%. It also gave a pest or weed control at 35 g/ha [10] of 85 to 94%, a pest or weed control at 70 g/ha [10] of 95 to 100% and a pest or weed control at 17.5 g/ha [11] of 95 to 100%. The pest or weed control at 35 g/ha [11] was 95 to 100%, the pest or weed control at 70 g/ha [11] was 95 to 100% and the pest or weed control at 17.5 g/ha [12] was 0 to 29%. The pest or weed control at 35 g/ha [12] was 95 to 100% and the pest or weed control at 70 g/ha [12] was 95 to 100%.
